Reference: paper PMC7910394, “Design of PSMA ligands with modifications at the inhibitor part: an approach to reduce the salivary gland uptake of radiolabeled PSMA inhibitors?” (EJNMMI Radiopharmacy and Chemistry, 2021)

Key:
[1] = Lipophilicity (log D), shake-flask method; type: physicochemical; details: from log D values
Method: The log D values were determined, using the shake-flask method as previously described (Wurzer et al. [2020]). The radiolabeled tracer (0.5–1 MBq, 20 μL) was dissolved in 1 mL of a 1/1 mixture (v/v) of PBS (pH 7.4) and n-octanol in a reaction vial (n = 6). After vigorous mixing of the suspension for 3 min at r.t., the vial was centrifuged at 9000 rpm (ca. 7700×g) for 5 min at room temperature (Heraeus Biofuge 15, Thermo Fisher Scientific, Darmstadt, Germany) and 150 μL aliquots of both layers were measured in a ɣ-counter.

[2] = system: LNCaP tumor xenograft-bearing CB17-SCID mouse; type: in vivo; details: 1 h p.i.
Method: Detailed information on organ preparation and extraction procedures is provided in the supporting information. In brief, [^177Lu]Lu-11 (9.64 MBq) was injected into the tail vein of a LNCaP tumor xenograft-bearing CB17-SCID mouse. The animal was sacrificed 1 h p.i. and subjected to the standard procedure for biodistribution studies. In addition, urine was taken from all mice that were investigated in this experiment (8.4–9.0 MBq injected activity) and pooled (n = 5). Liver, tumor and kidneys were homogenized with a MM-400 ball mill (Retsch GmbH, Haan, Germany) at 30 Hz for 20 min and extracted with 1 mL radioimmunoprecipitation assay (RIPA) buffer containing 2 μmol of 2-(phosphonomethyl)pentane-1,5-dioic acid (2-PMPA). The suspension was centrifuged (15,200 rpm, 10 min, 21 °C) and the supernatants were loaded onto a preconditioned Strata-X cartridge (200 mg). Elution of the activity was conducted by 750 μL of MeCN/H2O (6/4, 0.1% TFA) and the extracts were analyzed via radio-RP-HPLC. Prior to solid phase extraction, blood samples were centrifuged twice (13,000 rpm, 5 min) to separate the plasma from the blood cells. Urine samples were also centrifuged (13,000 rpm, 5 min) and the supernatant was directly analyzed via radio-RP-HPLC.
Besides biodistribution and μSPECT/CT studies, [^177Lu]Lu-11 (tetrazole) was analyzed according to its metabolic stability 1 h p.i. Relevant dissected organs (tumor, kidney, liver) and body fluids (blood and urine) were collected, homogenized if necessary and subjected to extraction of the incorporated activity. […] The respective radio-RP-HPLC analyses of extracts from homogenized organs and body fluids are depicted in Figure 1 in the supporting information.
[^177Lu]Lu-11 (9.64 MBq) was injected into the tail vein of a LNCaP tumor xenograft-bearing CB17-SCID mouse. The animal was sacrificed 1 h p.i. and subjected to the standard procedure for biodistribution studies. In addition, urine was taken from all mice that were investigated in this experiment (8.4 - 9.0 MBq) and pooled (n = 5). Relevant dissected organs (tumor, kidneys, liver) and body fluids (blood and urine) were collected, homogenized if necessary and subjected to mechanochemical as well as solid phase extraction (SPE).
Four 2 mL LoBind tubes were equipped with steel and ceramic beads from Lysis Tubes W (analytikjena, Jena, Germany) for kidneys, tumor and liver (bisected). 1 mL radioimmunoprecipitation assay (RIPA) buffer containing 2.0 µmol of 2-PMPA was added to each tube and the organs were homogenized with a MM-400 ball mill (Retsch GmbH, Haan, Germany) at 30 Hz for 20 min. Afterwards, the homogenates were transferred to LoBind tubes free from steel and ceramic beads and centrifuged (15,200 rpm, 10 min, 21 °C). The first supernatants were stored, and the precipitates were again subjected to mechanochemical extraction with 1 mL RIPA buffer (2.0 µmol PMPA) at 30 Hz for 20 min. After centrifugation (15,200 rpm, 10 min, 21 °C), also the second supernatants were kept for SPE.
After cardiac puncture, 1 mL Tracepur®-H2O was directly added to the collected blood sample and centrifuged twice (13,000 rpm, 5 min) to separate the plasma from the blood cells. The precipitate was dissolved in 500 µL Tracepur®-H2O and together with the first supernatant again centrifuged (13,000 rpm, 5 min). Both supernatants were kept for SPE.
Pooled urine samples were centrifuged (13,000 rpm, 5 min) and the supernatant was directly analyzed via radio-RP-HPLC.

Structure (SMILES): CC(C)(C)[Si](F)(c1ccc(C(=O)NC[C@@H](NC(=O)CN2CCN(CC(=O)[O-])CCN(CC(=O)[O-])CCN(CC(=O)[O-])CC2)C(=O)N[C@H](CCCCNC(=O)CCC(=O)NCCC[C@@H](NC(=O)CC[C@H](NC(=O)N[C@@H](CCc2nnn[nH]2)C(=O)O)C(=O)O)C(=O)O)C(=O)O)cc1)C(C)(C)C.[Lu+3] [^natLu/[^177Lu]Lu-11]
- increase of lipophilicity compared to [177Lu]Lu-1 [1]: ~ 7.4 fold
- metabolite with higher hydrophilicity found in the urine ([2]; pooled urine (n = 5)): 18.7%
- metabolite with higher hydrophilicity detected in blood ([2]; radio-RP-HPLC of extract): 8.5%
- metabolite with higher hydrophilicity detected in kidney ([2]; radio-RP-HPLC of extract): 11.7%
- metabolite with higher hydrophilicity detected in tumor ([2]; radio-RP-HPLC of extract): 7.1%
- metabolite with higher hydrophilicity in the liver homogenate ([2]; radio-RP-HPLC of extract): not detectable
- more lipophilic metabolite (tR = 20.5 min) in the liver homogenate ([2]; radio-RP-HPLC of extract): 28.0%
